Measurements taken from ChEMBL document CHEMBL5291721, “A preclinical secondary pharmacology resource illuminates target-adverse drug reaction associations of marketed drugs” (Nat Commun, 2023).

How the values were obtained:
[1] = molecular target: T1, Alpha-2A adrenergic receptor (Homo sapiens, UniProt P08913); assay type: functional, cell-based
T1 sequence (P08913 whole entry): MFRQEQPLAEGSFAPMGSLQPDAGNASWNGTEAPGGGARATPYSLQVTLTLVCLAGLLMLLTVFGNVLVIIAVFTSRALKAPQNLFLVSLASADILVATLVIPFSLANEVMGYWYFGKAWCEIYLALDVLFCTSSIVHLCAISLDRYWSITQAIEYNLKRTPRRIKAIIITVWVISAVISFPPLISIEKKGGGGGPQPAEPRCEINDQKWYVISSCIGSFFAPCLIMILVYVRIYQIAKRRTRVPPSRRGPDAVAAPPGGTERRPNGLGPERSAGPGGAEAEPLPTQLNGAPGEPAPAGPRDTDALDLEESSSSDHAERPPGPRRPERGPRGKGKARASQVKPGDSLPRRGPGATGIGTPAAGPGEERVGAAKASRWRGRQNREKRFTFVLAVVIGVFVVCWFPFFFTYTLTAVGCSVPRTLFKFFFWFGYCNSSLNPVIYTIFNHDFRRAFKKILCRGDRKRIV

[2] = molecular target: T2, Alpha-2C adrenergic receptor (Homo sapiens, UniProt P18825); assay type: functional
T2 sequence (P18825 whole entry): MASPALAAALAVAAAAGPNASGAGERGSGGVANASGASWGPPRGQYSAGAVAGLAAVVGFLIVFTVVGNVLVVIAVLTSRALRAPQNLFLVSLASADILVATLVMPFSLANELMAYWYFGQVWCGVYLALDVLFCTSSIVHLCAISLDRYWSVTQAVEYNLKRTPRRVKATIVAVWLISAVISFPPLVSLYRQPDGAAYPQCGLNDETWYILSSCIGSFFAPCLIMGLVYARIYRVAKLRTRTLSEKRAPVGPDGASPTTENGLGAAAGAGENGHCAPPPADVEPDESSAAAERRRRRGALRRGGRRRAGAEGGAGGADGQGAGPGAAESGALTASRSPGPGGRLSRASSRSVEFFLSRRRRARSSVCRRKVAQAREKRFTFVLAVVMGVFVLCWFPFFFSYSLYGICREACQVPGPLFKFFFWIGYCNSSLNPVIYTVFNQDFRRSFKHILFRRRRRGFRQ

B2 bradykinin receptor = molecular target: T3, B2 bradykinin receptor (Homo sapiens, UniProt P30411)
T3 sequence (P30411 whole entry): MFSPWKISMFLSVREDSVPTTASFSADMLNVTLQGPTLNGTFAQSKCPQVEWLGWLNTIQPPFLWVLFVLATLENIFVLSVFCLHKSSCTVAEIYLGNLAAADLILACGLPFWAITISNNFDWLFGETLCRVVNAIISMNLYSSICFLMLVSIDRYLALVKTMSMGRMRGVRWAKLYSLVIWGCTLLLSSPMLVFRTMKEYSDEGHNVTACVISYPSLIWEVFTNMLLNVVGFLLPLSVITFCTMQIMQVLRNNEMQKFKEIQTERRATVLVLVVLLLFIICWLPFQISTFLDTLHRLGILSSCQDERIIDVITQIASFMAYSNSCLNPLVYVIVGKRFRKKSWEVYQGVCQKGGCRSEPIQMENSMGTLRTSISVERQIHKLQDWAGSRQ

[3] = molecular target: Voltage-dependent L-type calcium channel subunit alpha-1C (Rattus norvegicus, UniProt P22002); assay type: functional
Sequence of Voltage-dependent L-type calcium channel subunit alpha-1C (P22002 whole entry): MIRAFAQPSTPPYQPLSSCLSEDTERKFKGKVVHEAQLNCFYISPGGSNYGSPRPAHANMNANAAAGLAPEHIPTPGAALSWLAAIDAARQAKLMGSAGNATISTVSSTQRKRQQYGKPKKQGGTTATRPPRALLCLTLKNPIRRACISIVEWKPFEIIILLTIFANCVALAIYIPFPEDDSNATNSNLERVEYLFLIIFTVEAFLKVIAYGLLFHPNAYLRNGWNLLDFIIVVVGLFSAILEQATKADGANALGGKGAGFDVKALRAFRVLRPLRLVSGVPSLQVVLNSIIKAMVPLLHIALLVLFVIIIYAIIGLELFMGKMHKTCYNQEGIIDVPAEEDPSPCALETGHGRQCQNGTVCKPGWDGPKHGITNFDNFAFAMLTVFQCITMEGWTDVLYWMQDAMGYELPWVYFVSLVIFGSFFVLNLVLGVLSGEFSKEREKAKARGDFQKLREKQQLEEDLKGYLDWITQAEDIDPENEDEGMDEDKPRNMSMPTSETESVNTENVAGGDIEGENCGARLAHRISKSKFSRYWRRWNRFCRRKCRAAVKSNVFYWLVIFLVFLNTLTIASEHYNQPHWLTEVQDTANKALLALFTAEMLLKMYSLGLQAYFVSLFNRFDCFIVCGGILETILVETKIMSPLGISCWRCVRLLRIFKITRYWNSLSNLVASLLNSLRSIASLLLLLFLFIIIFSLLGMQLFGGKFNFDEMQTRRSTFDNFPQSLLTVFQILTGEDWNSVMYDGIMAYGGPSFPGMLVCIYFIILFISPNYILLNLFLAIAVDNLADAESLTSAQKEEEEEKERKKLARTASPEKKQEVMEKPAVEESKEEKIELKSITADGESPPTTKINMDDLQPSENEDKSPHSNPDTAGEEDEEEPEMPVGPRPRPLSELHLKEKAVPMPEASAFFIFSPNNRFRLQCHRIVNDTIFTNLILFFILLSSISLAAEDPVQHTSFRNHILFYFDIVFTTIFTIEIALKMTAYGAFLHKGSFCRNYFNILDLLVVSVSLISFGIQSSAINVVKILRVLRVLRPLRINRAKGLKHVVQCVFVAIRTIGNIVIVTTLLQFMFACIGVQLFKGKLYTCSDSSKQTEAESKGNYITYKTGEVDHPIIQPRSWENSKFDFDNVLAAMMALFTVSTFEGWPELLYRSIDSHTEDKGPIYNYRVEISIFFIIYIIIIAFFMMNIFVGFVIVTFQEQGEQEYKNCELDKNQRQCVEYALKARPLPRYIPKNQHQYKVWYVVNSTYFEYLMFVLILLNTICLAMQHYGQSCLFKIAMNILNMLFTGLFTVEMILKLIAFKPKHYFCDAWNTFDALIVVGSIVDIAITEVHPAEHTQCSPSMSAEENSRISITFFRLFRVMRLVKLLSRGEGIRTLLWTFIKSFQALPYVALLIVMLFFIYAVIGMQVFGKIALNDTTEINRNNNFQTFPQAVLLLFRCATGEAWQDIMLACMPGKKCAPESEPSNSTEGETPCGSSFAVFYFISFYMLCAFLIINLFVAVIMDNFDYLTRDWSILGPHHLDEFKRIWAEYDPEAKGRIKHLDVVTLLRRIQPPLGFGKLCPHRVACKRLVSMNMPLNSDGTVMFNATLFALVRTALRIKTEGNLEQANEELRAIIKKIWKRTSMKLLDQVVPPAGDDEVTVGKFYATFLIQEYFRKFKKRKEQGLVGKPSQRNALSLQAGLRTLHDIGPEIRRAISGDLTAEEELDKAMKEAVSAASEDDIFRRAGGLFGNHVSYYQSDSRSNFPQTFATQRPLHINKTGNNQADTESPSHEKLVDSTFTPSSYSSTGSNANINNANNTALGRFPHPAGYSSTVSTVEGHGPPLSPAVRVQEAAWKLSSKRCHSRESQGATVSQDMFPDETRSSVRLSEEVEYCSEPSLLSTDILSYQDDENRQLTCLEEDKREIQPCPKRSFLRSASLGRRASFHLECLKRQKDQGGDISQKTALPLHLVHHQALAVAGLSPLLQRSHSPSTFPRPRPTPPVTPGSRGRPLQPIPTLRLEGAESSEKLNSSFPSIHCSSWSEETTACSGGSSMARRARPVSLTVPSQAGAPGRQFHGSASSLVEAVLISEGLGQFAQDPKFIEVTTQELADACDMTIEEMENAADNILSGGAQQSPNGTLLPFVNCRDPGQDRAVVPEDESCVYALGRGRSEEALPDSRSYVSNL

[4] = molecular target: Neuronal acetylcholine receptor subunit alpha-4 (Homo sapiens, UniProt P43681)
Sequence of Neuronal acetylcholine receptor subunit alpha-4 (P43681 whole entry): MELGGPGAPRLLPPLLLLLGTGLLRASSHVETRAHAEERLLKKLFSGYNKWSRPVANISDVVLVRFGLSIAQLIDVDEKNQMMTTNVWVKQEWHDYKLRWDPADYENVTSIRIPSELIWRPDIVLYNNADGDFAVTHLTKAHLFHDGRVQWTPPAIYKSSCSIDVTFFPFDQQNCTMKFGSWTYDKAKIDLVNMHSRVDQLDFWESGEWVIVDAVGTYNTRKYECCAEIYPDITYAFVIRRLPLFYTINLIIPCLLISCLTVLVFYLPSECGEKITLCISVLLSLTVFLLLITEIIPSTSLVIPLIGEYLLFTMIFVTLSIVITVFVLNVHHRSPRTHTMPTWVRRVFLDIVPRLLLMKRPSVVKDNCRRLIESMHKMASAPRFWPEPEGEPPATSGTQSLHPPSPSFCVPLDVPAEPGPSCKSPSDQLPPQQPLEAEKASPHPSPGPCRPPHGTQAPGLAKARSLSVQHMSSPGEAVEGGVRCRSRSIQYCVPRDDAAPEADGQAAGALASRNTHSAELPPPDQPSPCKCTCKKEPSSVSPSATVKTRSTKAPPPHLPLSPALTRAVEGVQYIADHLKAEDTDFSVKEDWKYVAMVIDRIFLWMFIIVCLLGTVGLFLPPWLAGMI

D(1A) dopamine receptor = D(1A) dopamine receptor (Homo sapiens, UniProt P21728); assay type: functional, cell-based
Sequence of D(1A) dopamine receptor (P21728 whole entry): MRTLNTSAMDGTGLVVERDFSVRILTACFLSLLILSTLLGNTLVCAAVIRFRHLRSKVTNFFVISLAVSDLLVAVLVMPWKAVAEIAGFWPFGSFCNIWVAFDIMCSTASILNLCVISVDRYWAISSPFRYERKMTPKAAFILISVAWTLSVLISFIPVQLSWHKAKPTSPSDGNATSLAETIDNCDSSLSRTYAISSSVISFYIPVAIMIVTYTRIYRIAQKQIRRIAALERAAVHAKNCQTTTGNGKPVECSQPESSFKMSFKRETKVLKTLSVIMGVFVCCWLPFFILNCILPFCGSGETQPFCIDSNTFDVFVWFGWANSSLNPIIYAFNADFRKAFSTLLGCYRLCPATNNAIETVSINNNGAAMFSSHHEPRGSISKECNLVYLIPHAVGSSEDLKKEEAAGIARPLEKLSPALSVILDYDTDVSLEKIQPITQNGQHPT

[5] = molecular target: Growth hormone secretagogue receptor type 1 (Homo sapiens, UniProt Q92847)
Sequence of Growth hormone secretagogue receptor type 1 (Q92847 whole entry): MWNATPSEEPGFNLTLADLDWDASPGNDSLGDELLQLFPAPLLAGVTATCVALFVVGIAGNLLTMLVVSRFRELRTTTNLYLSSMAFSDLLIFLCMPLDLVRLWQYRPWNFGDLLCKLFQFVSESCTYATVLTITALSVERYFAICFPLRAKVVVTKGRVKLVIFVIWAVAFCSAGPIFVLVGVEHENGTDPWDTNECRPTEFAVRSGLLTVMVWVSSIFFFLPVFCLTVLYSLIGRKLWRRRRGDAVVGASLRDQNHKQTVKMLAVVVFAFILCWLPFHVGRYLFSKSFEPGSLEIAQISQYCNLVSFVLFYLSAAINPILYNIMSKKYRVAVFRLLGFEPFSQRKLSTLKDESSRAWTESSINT

[6] = molecular target: 5-hydroxytryptamine receptor 2B (Homo sapiens, UniProt P41595); assay type: functional, cell-based
Sequence of 5-hydroxytryptamine receptor 2B (P41595 whole entry): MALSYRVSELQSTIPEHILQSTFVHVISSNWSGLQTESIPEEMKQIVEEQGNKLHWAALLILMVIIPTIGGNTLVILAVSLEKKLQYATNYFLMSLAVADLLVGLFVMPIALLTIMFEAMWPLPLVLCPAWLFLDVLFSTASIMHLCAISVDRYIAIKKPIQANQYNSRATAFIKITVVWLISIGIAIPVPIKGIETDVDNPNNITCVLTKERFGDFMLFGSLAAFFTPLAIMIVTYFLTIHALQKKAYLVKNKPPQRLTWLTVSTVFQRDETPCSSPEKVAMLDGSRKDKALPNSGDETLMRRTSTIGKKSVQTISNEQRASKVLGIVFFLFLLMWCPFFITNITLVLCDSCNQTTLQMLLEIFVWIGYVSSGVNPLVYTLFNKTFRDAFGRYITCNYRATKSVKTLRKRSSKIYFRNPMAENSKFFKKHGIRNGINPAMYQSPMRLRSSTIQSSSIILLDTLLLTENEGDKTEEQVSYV

Melanocortin receptor 3 = Melanocortin receptor 3 (Homo sapiens, UniProt P41968)
Sequence of Melanocortin receptor 3 (P41968 whole entry): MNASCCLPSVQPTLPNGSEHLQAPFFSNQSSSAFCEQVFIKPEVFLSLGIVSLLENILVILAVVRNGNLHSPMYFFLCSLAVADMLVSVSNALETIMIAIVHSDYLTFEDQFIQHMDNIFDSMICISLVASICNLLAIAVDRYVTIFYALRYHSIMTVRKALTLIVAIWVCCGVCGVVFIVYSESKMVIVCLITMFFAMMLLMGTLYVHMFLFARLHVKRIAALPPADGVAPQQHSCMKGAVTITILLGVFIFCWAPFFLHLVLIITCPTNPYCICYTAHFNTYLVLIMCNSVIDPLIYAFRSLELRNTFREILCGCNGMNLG

[7] = molecular target: Delta-type opioid receptor (Homo sapiens, UniProt P41143)
Sequence of Delta-type opioid receptor (P41143 whole entry): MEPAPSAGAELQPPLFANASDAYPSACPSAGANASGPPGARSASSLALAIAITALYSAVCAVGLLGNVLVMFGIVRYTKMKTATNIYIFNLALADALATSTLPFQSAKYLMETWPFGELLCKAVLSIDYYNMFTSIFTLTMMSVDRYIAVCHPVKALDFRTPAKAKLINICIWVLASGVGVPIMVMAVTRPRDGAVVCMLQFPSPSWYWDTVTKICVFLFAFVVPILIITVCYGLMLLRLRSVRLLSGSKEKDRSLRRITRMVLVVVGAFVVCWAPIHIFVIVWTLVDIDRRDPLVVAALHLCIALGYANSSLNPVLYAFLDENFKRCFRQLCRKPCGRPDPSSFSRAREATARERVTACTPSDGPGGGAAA

[8] = molecular target: 3',5'-cyclic-AMP phosphodiesterase 4D (Homo sapiens, UniProt Q08499); assay type: functional
[9] = molecular target: T4, Prostaglandin G/H synthase 1 (Rattus norvegicus, UniProt Q63921); assay type: functional
T4 sequence (Q63921 whole entry): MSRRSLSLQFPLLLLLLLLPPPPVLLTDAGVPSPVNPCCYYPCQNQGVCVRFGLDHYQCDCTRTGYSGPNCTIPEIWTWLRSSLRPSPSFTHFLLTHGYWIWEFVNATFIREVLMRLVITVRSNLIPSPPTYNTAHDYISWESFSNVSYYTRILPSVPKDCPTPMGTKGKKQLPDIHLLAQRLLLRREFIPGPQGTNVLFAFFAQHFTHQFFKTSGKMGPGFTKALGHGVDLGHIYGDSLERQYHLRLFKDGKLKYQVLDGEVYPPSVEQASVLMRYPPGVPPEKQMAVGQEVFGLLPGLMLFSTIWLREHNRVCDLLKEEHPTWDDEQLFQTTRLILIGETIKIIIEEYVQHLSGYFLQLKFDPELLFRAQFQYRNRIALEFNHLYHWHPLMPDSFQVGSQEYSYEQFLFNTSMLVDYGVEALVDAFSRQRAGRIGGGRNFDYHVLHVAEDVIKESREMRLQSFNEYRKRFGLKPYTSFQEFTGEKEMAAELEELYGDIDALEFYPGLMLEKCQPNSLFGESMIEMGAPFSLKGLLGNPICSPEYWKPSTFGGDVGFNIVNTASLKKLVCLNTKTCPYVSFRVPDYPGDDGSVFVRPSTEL
Further: assay procedure not described here.

Row | SMILES | AC50 [1] [µM] | AC50 [2] [µM] | AC50 (B2 bradykinin receptor) [µM] | AC50 [3] [µM] | AC50 [4] [µM] | AC50 (D(1A) dopamine receptor) [µM] | AC50 [5] [µM] | AC50 [6] [µM] | AC50 (Melanocortin receptor 3) [µM] | AC50 [7] [µM] | AC50 [8] [µM] | AC50 [9] [µM]
1 | CC(=O)c1ccc(S(=O)(=O)NC(=O)NC2CCCCC2)cc1 [ACETOHEXAMIDE] | > 30 | > 10 | > 10 | > 10 | > 10 | > 10 | > 10 | > 30 | > 10 | > 30 | > 30 | > 10
2 | COc1cc(C)c(/C=C/C(C)=C/C=C/C(C)=C/C(=O)O)c(C)c1C [ACITRETIN] | > 10 | > 10 | > 10 | > 10 | > 10 | > 10 | > 10 | > 10 | > 10 | > 30 | > 30 | 0.517
3 | CCC1(CCC(C)C)C(=O)NC(=O)NC1=O [AMOBARBITAL] | > 10 | > 10 | > 10 | > 10 | > 10 | > 10 | > 10 | > 10 | > 10 | > 30 | > 30 | > 10
4 | COc1ccc(C2C(=O)c3ccccc3C2=O)cc1 [ANISINDIONE] | > 10 | > 10 | > 10 | > 10 | > 10 | > 30 | > 10 | > 10 | > 10 | > 30 | > 30 | 13
5 | O=C(O)c1ccc(NC(=O)[C@H](Cc2ccc(O)cc2)NC(=O)c2ccccc2)cc1 [BENTIROMIDE] | > 10 | > 10 | > 10 | > 10 | > 10 | > 10 | > 10 | > 10 | > 10 | > 30 | > 30 | > 10
6 | NS(=O)(=O)c1cc2c(cc1Cl)N=C(CSCc1ccccc1)NS2(=O)=O [BENZTHIAZIDE] | > 10 | 1.5 | > 10 | > 10 | > 10 | > 10 | > 10 | > 10 | > 10 | > 30 | > 30 | > 10
7 | CC(C)[C@@H](C)/C=C/[C@@H](C)[C@H]1CC[C@H]2/C(=C/C=C3\C[C@@H](O)CC[C@@H]3C)CCC[C@]12C [DIHYDROTACHYSTEROL] | > 10 | > 10 | > 10 | > 10 | > 10 | > 10 | > 10 | > 10 | > 10 | > 30 | > 30 | > 10
8 | CC(=O)[C@H]1CC[C@H]2[C@@H]3C[C@H](C)C4=CC(=O)CC[C@]4(C)[C@H]3[C@@H](O)C[C@]12C [MEDRYSONE] | > 10 | > 10 | > 10 | > 10 | > 10 | > 10 | > 10 | > 10 | > 10 | > 30 | > 30 | > 10
9 | CCCC(C)(COC(N)=O)COC(N)=O [MEPROBAMATE] | > 10 | > 30 | > 10 | > 10 | > 10 | > 10 | > 10 | > 10 | > 10 | > 30 | > 30 | > 10
10 | COc1ccc2cc(CCC(C)=O)ccc2c1 [NABUMETONE] | > 10 | > 30 | > 10 | > 10 | > 10 | > 30 | > 10 | > 10 | > 10 | > 30 | > 30 | > 10
11 | O=C(c1cc(Cc2n[nH]c(=O)c3ccccc23)ccc1F)N1CCN(C(=O)C2CC2)CC1 [OLAPARIB] | > 10 | > 10 | > 30 | > 10 | > 30 | > 10 | > 30 | > 10 | > 30 | > 30 | > 30 | > 30
12 | CO[C@H]1C[C@H](O[C@H]2CC[C@@]3(C)[C@H](CC[C@@H]4[C@@H]3CC[C@]3(C)[C@@H](C5=CC(=O)OC5)[C@@H](OC(C)=O)C[C@]43O)C2)O[C@@H](C)[C@@H]1O [OLEANDRIN] | > 30 | > 30 | – | – | – | > 30 | – | > 30 | – | > 30 | > 30 | –
13 | NC(=O)NC(=O)Cc1ccccc1 [PHENACEMIDE] | > 10 | > 10 | > 10 | > 10 | > 10 | > 10 | > 10 | > 10 | > 10 | > 30 | > 30 | > 10
14 | CCCN(CCC)S(=O)(=O)c1ccc(C(=O)O)cc1 [PROBENECID] | > 10 | > 10 | > 10 | > 10 | > 10 | > 10 | > 10 | > 10 | > 10 | > 30 | > 30 | > 10
15 | CCc1nc(N)nc(N)c1-c1ccc(Cl)cc1 [PYRIMETHAMINE] | 9.8 | > 30 | > 10 | > 10 | > 10 | > 10 | > 10 | 11.3 | > 10 | > 30 | 12 | > 10
16 | CC1=C(/C=C/C(C)=C/C=C/C(C)=C/CO)C(C)(C)CCC1 [RETINOL] | > 10 | > 10 | > 10 | > 10 | > 10 | > 10 | > 10 | > 10 | > 10 | > 30 | > 30 | > 10
17 | CCCCCCCC(=O)CC[C@@H]1[C@@H](C/C=C\CCCC(=O)OC(C)C)[C@@H](O)C[C@H]1O [UNOPROSTONE ISOPROPYL] | – | 13 | – | – | – | – | – | 0.89 | 27 | > 30 | 9.6 | > 30
